Key:
[1] = system: non-small cell lung cancer cell line A549; experiment: MTS cell viability assay in A549; type: cell-based; conditions: A549, 0.1-20 μM, 72 hours
Protocol: (§1) Specifically, cells were attached to 96 well plates for 24 hours, and then treated with the indazole derivatives for 72 hours. Thereafter, the cells were chromogenized with MTS for 4 hours, and the absorbance was measured at 490 nm using a Spectramax Plus384 microplate analyzer. The significance between the control group and the experimental group was verified using an unpaired Students t-test (*p<0.01; DMSO control vs indazole series).
(§2) In addition to the breast cancer cell line, a leukemia cell line HL-60, a liver cancer cell line HepG2, a colorectal cancer cell line HCT116, a prostate cancer cell line Du145, an ovarian cancer cell line SKOV3, and non-small cell lung cancer cell lines NCI-H1299 and A549 were treated with compound 11k (formula 1-7) at concentrations of 0 (DMSO), 0.1, 0.5, 1, 2, 5, 10, and 20 μM, respectively, for 72 hours, and then cell viability was measured using the MTS assay technique as explained by the description of Experimental Example 1. The significance between the control group and the experimental group was verified using an unpaired Students t-test (*p<0.01; DMSO control vs compound 11k).

[2] = system: liver cancer cell line HepG2; experiment: MTS cell viability assay in HepG2; type: cell-based; conditions: HepG2, 0.1-20 μM, 72 hours
Protocol: as §1, §2

[3] = system: ovarian cancer cell line SKOV3; experiment: MTS cell viability assay in SKOV3; type: cell-based; conditions: SKOV3, 0.1-20 μM, 72 hours
Protocol: as §1, §2

[4] = system: prostate cancer cell line Du145; experiment: MTS cell viability assay in Du145; type: cell-based; conditions: Du145, 0.1-20 μM, 72 hours
Protocol: as §1, §2

[5] = system: JIMT-1 breast cancer cell line xenograft; experiment: Tumor growth in JIMT-1 xenograft mouse model, combination with paclitaxel; type: in vivo, Balb/c nude mice
Protocol: This experiment was performed in an in vivo environment using a xenograft mouse model transplanted with the JIMT-1 breast cancer cell line.
6-week-old mice (Balb/c nude mice) were purchased and raised in an environment where they could freely access food and water. The mice were acclimated for more than 7 days, and then were transplanted with tumor cells. Tumor cells were injected subcutaneously into the mammary gland tissue of JIMT-1 breast cancer cells at a density of 3×10^6 cells/mL per individual, and when the tumor reached a size of 50 to 100 mm^3, the indazole derivative of the present disclosure was administered intraperitoneally, and the tumor growth was measured.

[6] = system: colorectal cancer cell line HCT116; experiment: MTS cell viability assay in HCT116; type: cell-based; conditions: HCT116, 0.1-20 μM, 72 hours
Protocol: as §1, §2

[7] = Toxicity in JIMT-1 xenograft mice, combination with paclitaxel (body weight, AST, ALT, BUN); type: in vivo, Balb/c nude mice; conditions: combination study
[8] = system: leukemia cell line HL-60; experiment: MTS cell viability assay in HL-60; type: cell-based; conditions: HL-60, 0.1-20 μM, 72 hours
Protocol: as §1, §2

[9] = system: non-small cell lung cancer cell line NCI-H1299; experiment: MTS cell viability assay in NCI-H1299; type: cell-based; conditions: NCI-H1299, 0.1-20 μM, 72 hours
Protocol: as §1, §2

## COc1c(C(=O)Nc2ccc3c(C)nn(CCC4CCN(C)CC4)c3c2)ccc2c1C=CC(C)(C)O2 [compound 11k, 5-Methoxy-2,2-dimethyl-N-(3-methyl-1-(2-(1-methylpiperidin-4-yl)ethyl)-1H-indazol-6-yl)-2H-chromene-6-carboxamide]
[1]
  cell viability: effective in inhibiting cell viability
[2]
  cell viability: effective in inhibiting cell viability
[3]
  cell viability: effective in inhibiting cell viability
[4]
  cell viability: effective in inhibiting cell viability
[5]; measured after tumor resection
  tumor weight: 500 mg
[5]; measured at 40 days after drug administration
  tumor volume: 786.392 mm^3
[6]
  cell viability: effective in inhibiting cell viability
[7]; blood of the mouse model
  AST and ALT levels, BUN assay: levels similar to those of the control group
[7]
  body weight: remained unchanged
[8]
  cell viability: effective in inhibiting cell viability
[9]
  cell viability: effective in inhibiting cell viability

From patent publication US20260167629A1, “NOVEL INDAZOLE DERIVATIVE OR PHARMACEUTICALLY ACCEPTABLE SALT THEREOF, AND USE THEREOF” (KOREA UNIVERSITY RESEARCH AND BUSINESS FOUNDATION, priority 2022, published 2026)
